3 compounds from US20250145579A1, “PROCESS FOR MANUFACTURING AN LPXC ANALOG” (Zoetis Services LLC, priority 2022, published 2025) can be followed below.

Entries after “also recorded” stand apart in the source; their conditions may differ.

This data set in a line: Relative stability of isolated solid forms (slurry experiments, XRD). The format is physicochemical. The conditions noted are these: for relative stability of the solid form: as isolated solids. As for the experimental part:
A number of polymorphic forms of (R)-4-(4-(4-(2H-1,2,3-triazol-2-yl)phenyl)-2-oxopyridin-1 (2H)-yl)-N-hydroxy-2-methyl-2-(methylsulfonyl)-butanamide were prepared (Forms 1, 2 and 3) as API slurries in a number of protic and aprotic solvents. With the exception of acetonitrile, methyl ethyl ketone, and tetrahydrofuran, the use of aprotic solvents like ethyl, butyl or propyl acetate result in Form 1. With the exception of water, the use of protic solvents such as butyl, propyl and ethyl alcohol favor the formation of Form 2. An unstable Form 3 was also noted. The presence of water in alcohols increased the rate of Form 2 isolation from solution. […] The three forms were structurally related and were solvated and/or hydrated.
The relative stability of the three isolated solid forms appears to be different as suspensions compared to isolated solids. […] As suspensions, the relative stability of these solvates is dependent on the solvent or solvent/water mixture that is present.
It is very likely that these three solvated solids are nearly isostructural and differ in subtle ways that are linked to the way solvent or water are packed into the solvation sites in the structure. There is an increasing complexity of the XRD patterns with Form 1 being the most complex (most peaks) and Form 3 having the fewest peaks. This pattern complexity (F1>F2>F3) parallels the apparent stability of the dried isolated samples. Out of 384 solvent mixtures, a total of 90 samples were mixtures rather than pure phase Forms.
The X-ray diffractograms were obtained on a Scintag X1 powder diffractometer equipped with a Peltier cooled solid state detector. Data were collected between 4 and 40° 20 using a 0.03° step size and data acquisition time was 45 to 60 minutes for sample characterization. Data collection for solids isolated from the bulk of the small scale preliminary experiments was at a 0.04° step size over 15 minutes between 7 and 37 degrees 2-theta. Copper Kα radiation (λ=1.54056 Å) was utilized and the tube voltage and amperage were set to 45 kV and 40 mA, respectively. […]

Take `C[C@@](CCn1ccc(-c2ccc(-n3nccn3)cc2)cc1=O)(C(=O)NO)S(C)(=O)=O` [Form 1, (R)-4-(4-(4-(2H-1,2,3-triazol-2-yl)phenyl)-2-oxopyridin-1 (2H)-yl)-N-hydroxy-2-methyl-2-(methylsulfonyl)-butanamide]: the “relative stability of the solid form” value is recorded as “most stable form”.
For the compound `C[C@@](CCn1ccc(-c2ccc(-n3nccn3)cc2)cc1=O)(C(=O)NO)S(C)(=O)=O` [Form 2, (R)-4-(4-(4-(2H-1,2,3-triazol-2-yl)phenyl)-2-oxopyridin-1 (2H)-yl)-N-hydroxy-2-methyl-2-(methylsulfonyl)-butanamide], the “relative stability of the solid form” value is reported as “meta-stable relative to Form 1”.
`C[C@@](CCn1ccc(-c2ccc(-n3nccn3)cc2)cc1=O)(C(=O)NO)S(C)(=O)=O` [Form 3, (R)-4-(4-(4-(2H-1,2,3-triazol-2-yl)phenyl)-2-oxopyridin-1 (2H)-yl)-N-hydroxy-2-methyl-2-(methylsulfonyl)-butanamide]: the “stability of the solid form / form conversion” value (by XRD patterns of isolated solids from slurries) is “unstable; also recorded: meta-stable and converts to Form 2”.
